In the assay the test system is Vero 76 cells viability, cytotoxicity counter-screen. The assay is described as follows: Vero 76 cell cytotoxicity, dose response, cytotoxicity control for VEEV inhibitor project (AID 588719).

Among the data in PubChem BioAssay AID588719 (Southern Research Specialized Biocontainment Screening …, 2011) are CC50 values, retold here.

A word on the CC50: it is the concentration giving 50% cytotoxicity. `COc1cc(/C=C/C(=O)/C=C(O)/C=C/c2ccc(O)c(OC)c2)ccc1O`: the CC50 was 19.9 µM.
